Patent US4537879A, “A47934 Antibiotic and process for production thereof” (Eli Lilly and Company, priority 1984, dated 1985)
In brackets after ≈: the same amount, converted by molar mass. Like-named read-outs stand apart in the source and are kept apart here.

Tests used:
[1] = tested on: Peptococcus asaccharolyticus 1302; assay: MIC against anaerobic bacteria, agar dilution; format: cell-based; settings: strain 1302
[2] = Test 2: growth promotion in chickens; format: in vivo, 8-day old Penobscot broilers; settings: chicks, 20 g./T. of feed, 21 days
Source text: Chicks, 8-day old Penobscot broilers, were used in this test. A total of 560 chicks were used divided into groups of 7 birds each. […] The broiler starter ration has the following composition: Feed and water were available to all groups ad libitum for 21 days. Two time replicates were run.

Haemophilus influenza = assay: MIC against a variety of bacteria, standard agar-dilution; format: cell-based
[3] = tested on: Propionibacterium acnes 79; assay: MIC against anaerobic bacteria, agar dilution; format: cell-based; settings: strain 79
Staphylococcus aureus = assay: MIC against a variety of bacteria, standard agar-dilution; format: cell-based
Salmonella typhi = assay: as above; format: cell-based
[4] = tested on: Eubacterium aerofaciens 1235; assay: MIC against anaerobic bacteria, agar dilution; format: cell-based; settings: strain 1235
[5] = tested on: Clostridium perfringens 81; format: cell-based; settings: strain 81; agar dilution
Bacteroides fragilis = assay: MIC against anaerobic bacteria, agar dilution; format: cell-based
[6] = tested on: Peptostreptococcus intermedius 1264; assay: MIC against anaerobic bacteria, agar dilution; format: cell-based; settings: strain 1264
[7] = tested on: Clostridium difficile 2994; assay: MIC against anaerobic bacteria, agar dilution; format: cell-based; settings: strain 2994
[8] = tested on: Fusobacterium necrophorum 6054A; assay: MIC against anaerobic bacteria, agar dilution; format: cell-based; settings: strain 6054A
[9] = Test 3: growth promotion in weanling pigs; format: in vivo; settings: 28 days
Method: Antibiotic A47934 was tested at levels of 10 and 50 ppm. in the diet of pigs initially weighing an average of about 23 pounds, compared with […]) administered in the diet at 110 ppm. The experiment was conducted in an environmentally controlled nursery facility with wire mesh floors in the pens. There were four replicates per treatment and four pigs per replicate for the 28-day experiment. There were six replicates of four pigs per replicate in the control group, which group received the unmedicated diet. The pigs were fed ad libitum on an 18 percent protein corn-soy ration having the following composition: At the end of the trial, the average weight of the individual pig had increased to 53 pounds.

[10] = tested on: Bacteroides corrodens 1874; assay: MIC against anaerobic bacteria, agar dilution; format: cell-based; settings: strain 1874
[11] = Acute toxicity, intraperitoneal; format: in vivo; settings: mice, intraperitoneally
Method: Antibiotic A47934, when given intraperitoneally to mice, has an acute toxicity greater than 300 mg./kg.

[12] = Precipitation from broth filtrate on acidification; format: physicochemical; settings: broth filtrate acidified
Source text: Antibiotic A47934 can also be removed from the broth filtrate by adjusting such filtrate to about pH 3 with acid, for complete precipitation, followed by filtration. A47934 starts to precipitate at about pH 6.5 and is complete at about pH 3. Inorganic acids such as hydrochloric, sulfuric, and phosphoric, and organic acids such as acetic acid and formic acid are suitable for acidification. The crude A47934 thus obtained can be further purified by chromatographic procedures.

S. aureus (3055) = assay: In vivo activity against experimental bacterial infection; settings: mice, two doses subcutaneously; S. aureus (3055) infection
S. pneumoniae (Park I) = assay: as above; settings: mice, two doses subcutaneously
[13] = tested on: Staphylococcus epidermidis; assay: MIC against a variety of bacteria, standard agar-dilution; format: cell-based
Peptococcus prevoti 1281 = settings: strain 1281; agar dilution
[14] = tested on: Bacteroides thetaiotaomicron 1438; assay: MIC against anaerobic bacteria, agar dilution; format: cell-based; settings: strain 1438
[15] = tested on: Clostridium septicum 1128; assay: MIC against anaerobic bacteria, agar dilution; format: cell-based; settings: strain 1128
[16] = tested on: Clostridium difficile strains; assay: MIC against Clostridium difficile strains, agar-dilution; format: cell-based
Source text: Antibiotic A47934 is also active against a number of strains of Clostridium difficile, as determined by the agar-dilution method.

[17] = tested on: Bacteroides vulgatis 1211; assay: MIC against anaerobic bacteria, agar dilution; format: cell-based; settings: strain 1211
S. pyogenes C203 = assay: In vivo activity against experimental bacterial infection; settings: mice, two doses subcutaneously
[18] = tested on: volatile fatty acids produced in the rumen; assay: Test 1: in vitro modification of the ratio of volatile fatty acids produced in the rumen
Source text: The effectiveness of antibiotic A47934 in modifying the ratio of volatile fatty acids produced in the rumen has been determined using the in vitro test described in Raun, U.S. Pat. No. 3,928,571 (Dec. 23, 1975), see the EXAMPLE therein. The data in Table 9, which follows, are reported as the ratio of VFA's produced in treated flasks to VFA's produced in untreated control flasks.

[19] = tested on: Fusobacterium symbiosum 1470; assay: MIC against anaerobic bacteria, agar dilution; format: cell-based; settings: strain 1470
[20] = tested on: Bacteroides melaninogenicus; assay: MIC against anaerobic bacteria, agar dilution; format: cell-based
Streptococcus Group D = assay: MIC against a variety of bacteria, standard agar-dilution; format: cell-based
[21] = tested on: Streptococcus pyogenes C203; assay: as above; format: cell-based; settings: strain C203
[22] = tested on: Peptostreptococcus anaerobius 1428; assay: MIC against anaerobic bacteria, agar dilution; format: cell-based; settings: strain 1428
[23] = tested on: Streptococcus pneumoniae Park 1; assay: MIC against a variety of bacteria, standard agar-dilution; format: cell-based; settings: strain Park 1

## N[C@H]1C(=O)N[C@@H]2Cc3ccc(c(Cl)c3)Oc3cc4cc(c3O)Oc3ccc(cc3Cl)[C@@H](O)[C@@H]3NC(=O)[C@H](NC(=O)[C@@H]4NC(=O)[C@@H](NC2=O)c2cc(O)cc(c2)Oc2cc1ccc2OS(=O)(=O)O)c1cc(Cl)c(O)c(c1)-c1c(O)cc(O)cc1[C@@H](C(=O)O)NC3=O [Antibiotic A47934]
Escherichia coli; strain EC14
  MIC: > 128.0 µg/mL
Escherichia coli; strain N10
  MIC: > 128.0 µg/mL
Escherichia coli; strain TEM
  MIC: > 128.0 µg/mL
[1]
  MIC: 0.5 µg/mL (≈ 0.381 µM)
[2]; first time replicate
  Feed Efficiency % Impr.: 4.69%
  Feed Efficiency F/G: 1.707
  Weight Gain: 519 gm.
  Weight Gain % Impr.: 7.23%
[2]; second time replicate
  Feed Efficiency F/G: 1.746
  Weight Gain: 464 gm.
  Weight Gain % Impr.: 0%
Haemophilus influenza; strain 76
  MIC: 4.0 µg/mL (≈ 3.05 µM)
Haemophilus influenza; strain C.L.
  MIC: 2.0 µg/mL (≈ 1.52 µM)
[3]
  MIC: 1.0 µg/mL (≈ 0.761 µM)
Staphylococcus aureus
  MIC: 0.125 µg/mL (≈ 0.0952 µM)
Staphylococcus aureus; strain S13E
  MIC: 0.125 µg/mL (≈ 0.0952 µM)
Staphylococcus aureus; strain X1.1
  MIC: 0.06 µg/mL (≈ 0.0457 µM)
Staphylococcus aureus; strain X400
  MIC: 0.25 µg/mL (≈ 0.19 µM)
Salmonella typhi; strain 1335
  MIC: > 128 µg/mL
Salmonella typhi; strain X514
  MIC: > 128 µg/mL
[4]
  MIC: 1.0 µg/mL (≈ 0.761 µM)
[5]
  MIC: 0.5 µg/mL (≈ 0.381 µM)
Bacteroides fragilis; strain 111
  MIC: 32.0 µg/mL (≈ 24.4 µM)
Bacteroides fragilis; strain 1877
  MIC: 32.0 µg/mL (≈ 24.4 µM)
Bacteroides fragilis; strain 1936B
  MIC: 32.0 µg/mL (≈ 24.4 µM)
[6]
  MIC: 1.0 µg/mL (≈ 0.761 µM)
[7]
  MIC: 0.5 µg/mL (≈ 0.381 µM)
[8]
  MIC: 0.25 µg/mL (≈ 0.19 µM)
[9]; 10 ppm in diet
  ADF % Im-crease: -3.2%
  ADF (average daily feed consumption): 1.83 lbs.
  ADG % Im-crease: 3.1%
  ADG (average daily gain): 1.00 lbs.
  F/G % Improvement: 7.6%
  F/G (ratio of feed consumption to gain): 1.82
[9]; 50 ppm in diet
  ADF % Im-crease: 4.7%
  ADF (average daily feed consumption): 1.98 lbs.
  ADG % Im-crease: 10.3%
  ADG (average daily gain): 1.07 lbs.
  F/G % Improvement: 6.1%
  F/G (ratio of feed consumption to gain): 1.85
[10]
  MIC: 32.0 µg/mL (≈ 24.4 µM)
Klebsiella pneumoniae; strain KAE
  MIC: > 128.0 µg/mL
Klebsiella pneumoniae; strain X26
  MIC: > 128.0 µg/mL
[11]
  acute toxicity: greater than 300 mg./kg.
[12]
  pH at which A47934 starts to precipitate: ~6.5 pH
  pH at which precipitation is complete: ~3 pH
S. aureus (3055)
  ED50: < 0.3 mg./kg. × 2
S. pneumoniae (Park I)
  ED50: 1.77 mg./kg. × 2
[13]; strain EPI1
  MIC: 0.25 µg/mL (≈ 0.19 µM)
[13]; strain EPI2
  MIC: 2.0 µg/mL (≈ 1.52 µM)
Peptococcus prevoti 1281
  MIC: 1.0 µg/mL (≈ 0.761 µM)
[14]
  MIC: 32.0 µg/mL (≈ 24.4 µM)
[15]
  MIC: 0.5 µg/mL (≈ 0.381 µM)
[16]; strain 78
  MIC: ≤ 0.5 µg/mL
[16]; strain 107B
  MIC: ≤ 0.5 µg/mL
[16]; strain 111F
  MIC: ≤ 0.5 µg/mL
[16]; strain 1153
  MIC: ≤ 0.5 µg/mL
[16]; strain 2634
  MIC: ≤ 1.0 µg/mL
[16]; strain 3424-5B
  MIC: ≤ 0.5 µg/mL
[16]; strain 3816
  MIC: ≤ 0.5 µg/mL
[16]; strain 3950D
  MIC: ≤ 0.5 µg/mL
[16]; strain 6890
  MIC: ≤ 0.5 µg/mL
[16]; strain 8484
  MIC: ≤ 0.5 µg/mL
[16]; strain A-194
  MIC: ≤ 0.5 µg/mL
[16]; strain A-195
  MIC: ≤ 0.5 µg/mL
[16]; strain A-196
  MIC: ≤ 0.5 µg/mL
[16]; strain A-279
  MIC: ≤ 1.0 µg/mL
[16]; strain A-280
  MIC: ≤ 0.5 µg/mL
[16]; strain A-281
  MIC: ≤ 0.5 µg/mL
[16]; strain WAL-2112
  MIC: ≤ 0.5 µg/mL
[16]; strain WAL-3657
  MIC: ≤ 0.5 µg/mL
[16]; strain WAL-4268
  MIC: ≤ 0.5 µg/mL
[17]
  MIC: 32.0 µg/mL (≈ 24.4 µM)
S. pyogenes C203
  ED50: 3.38 mg./kg. × 2
[18]; 1 mcg./ml.
  Acetate, ratio of VFA produced in treated flasks to untreated control flasks: 0.99
  Butyrate, ratio of VFA produced in treated flasks to untreated control flasks: 1.01
  Propionate, ratio of VFA produced in treated flasks to untreated control flasks: 1.11
[18]; 2 mcg./ml.
  Acetate, ratio of VFA produced in treated flasks to untreated control flasks: 1.09
  Butyrate, ratio of VFA produced in treated flasks to untreated control flasks: 1.03
  Propionate, ratio of VFA produced in treated flasks to untreated control flasks: 1.10
[18]; 4 mcg./ml.
  Acetate, ratio of VFA produced in treated flasks to untreated control flasks: 0.81
  Butyrate, ratio of VFA produced in treated flasks to untreated control flasks: 1.03
  Propionate, ratio of VFA produced in treated flasks to untreated control flasks: 1.32
[18]; 10 mcg./ml.
  Acetate, ratio of VFA produced in treated flasks to untreated control flasks: 0.95
  Butyrate, ratio of VFA produced in treated flasks to untreated control flasks: 1.00
  Propionate, ratio of VFA produced in treated flasks to untreated control flasks: 1.12
[19]
  MIC: 2.0 µg/mL (≈ 1.52 µM)
[20]; strain 1856/28
  MIC: > 128.0 µg/mL
[20]; strain 2736
  MIC: 16.0 µg/mL (≈ 12.2 µM)
Streptococcus Group D; strain 9960
  MIC: 0.5 µg/mL (≈ 0.381 µM)
Streptococcus Group D; strain X66
  MIC: 0.5 µg/mL (≈ 0.381 µM)
[21]
  MIC: 0.25 µg/mL (≈ 0.19 µM)
[22]
  MIC: 0.25 µg/mL (≈ 0.19 µM)
[23]
  MIC: 0.06 µg/mL (≈ 0.0457 µM)

## CC[C@H]1OC(=O)C[C@@H](O)[C@H](C)[C@@H](O[C@@H]2O[C@H](C)[C@@H](O[C@H]3C[C@@](C)(O)[C@@H](O)[C@H](C)O3)[C@H](N(C)C)[C@H]2O)[C@@H](CC=O)C[C@@H](C)C(=O)/C=C/C(C)=C/[C@@H]1CO[C@@H]1O[C@H](C)[C@@H](O)[C@@H](OC)[C@H]1OC [Tylan, tylosin, reference compound]
[9]; 110 ppm in diet
  ADF % Im-crease: 2.6%
  ADF (average daily feed consumption): 1.94 lbs.
  ADG % Im-crease: 4.1%
  ADG (average daily gain): 1.01 lbs.
  F/G % Improvement: 2.5%
  F/G (ratio of feed consumption to gain): 1.92
